Test results: patent publication US7001983B1, “Antipathogenic synthetic peptides and compositions comprising them” (priority 1997, dated 2006)
Square brackets hold non-standard residues; d marks the D form. Peptide text beside a SMILES is read from it.

Legend:
Type in all cases: cell-based
[1] = system: Bacillus megaterium Bm11; conditions: 100% inhibition of growth after 18–20 h
[2] = system: human red blood cells (hRBC); test: Hemolysis of human red blood cells; conditions: hRBC, 30 min at 37° C.
Procedure: (ix) Hemolysis of human red blood cells. The peptides were tested for their hemolytic activities against human red blood cells (hRBC). Fresh hRBC with EDTA were rinsed 3 times with PBS (35 mM phosphate buffer/0.15 M NaCl, pH 7.3) by centrifugation for 10 min at 800 g and resuspended in PBS. Peptides dissolved in PBS were then added to 50 μL of a solution of the stock hRBC in PBS to reach a final volume of 100 μL (final erythrocyte concentration, 5% v/v). The resulting suspension was incubated under agitation for 30 min at 37° C. The samples were then centrifuged at 800 g for 10 min. Release of hemoglobin was monitored by measuring the absorbance of the supernatant at 540 nm. Controls for zero hemolysis (blank) and 100% hemolysis consisted of hRBC suspended in PBS and Triton 1%, respectively.

[3] = system: Escherichia coli D21; conditions: 100% inhibition of growth after 18–20 h

Structure (SMILES)	Minimal Inhibitory Concentration B. megaterium (Bm11) [1]	% hemolysis at 100 μM [2]	Minimal Inhibitory Concentration E. coli (D21) [3]	% hemolysis at 50 μM peptide [2]
CC[C@H](C)[C@@H]1NC(=O)[C@H](CCCCN)NC(=O)[C@H]2CCCN2C(=O)[C@H]([C@@H](C)CC)NC(=O)[C@H](CC(C)C)NC(=O)[C@H](C)NC(=O)[C@H](Cc2ccccc2)NC(=O)[C@H](Cc2ccccc2)NC(=O)CNC(=O)[C@H](CCCCN)NC(=O)[C@@H](N)CSSC[C@@H](C(=O)O)NC(=O)[C@H](C(C)C)NC(=O)[C@H](C)NC(=O)[C@H](CO)NC(=O)[C@@H](CC(C)C)NC(=O)[C@@H](CC(C)C)NC(=O)[C@H]([C@@H](C)O)NC(=O)[C@H](CCCCN)NC(=O)[C@H](Cc2ccccc2)NC(=O)[C@H](CC(C)C)NC(=O)[C@@H]2CCCN2C(=O)[C@H](CO)NC(=O)[C@H](CO)NC(=O)[C@H]([C@@H](C)CC)NC1=O [Peptide 86, Cyclic K^1[D]P^7L^18L^19[1-22]-par]	10 µM	0%	30 µM	
CC(C)C[C@H](NC(=O)[C@H](CC(C)C)NC(=O)[C@@H](CC(C)C)NC(=O)[C@H](N)CCCCN)C(=O)N[C@H](CCCCN)C(=O)N[C@H](CC(C)C)C(=O)N[C@H](CCCCN)C(=O)N[C@@H](CC(C)C)C(=O)N[C@H](CCCCN)C(=O)N[C@@H](CC(C)C)C(=O)N[C@H](CC(C)C)C(=O)N[C@H](CCCCN)C(N)=O [Peptide 27, [D]-K^1,5,7,9,12L^2,6,11-K5L7] (H-[dK][dL]LL[dK][dL][dK]L[dK]L[dL][dK]-NH2)	0.2 µM	0%	7 µM	
CC(C)C[C@H](NC(=O)[C@@H](CC(C)C)NC(=O)[C@H](CCCCN)NC(=O)[C@@H](CC(C)C)NC(=O)[C@H](CC(C)C)NC(=O)[C@@H](CC(C)C)NC(=O)[C@@H](N)CCCCN)C(=O)N[C@@H](CCCCN)C(=O)O [Peptide 29, [D]-L^2,4,6-K3L5] (H-K[dL]L[dL]K[dL]LK-OH)	3 µM	0%	3 µM	
CC(C)[C@H](NC(=O)[C@H](CCCCN)NC(=O)[C@H](NC(=O)[C@H](NC(=O)[C@@H](NC(=O)[C@@H](N)CCCCN)C(C)C)C(C)C)C(C)C)C(=O)N[C@H](C(=O)N[C@@H](C(=O)N[C@@H](CCCCN)C(=O)N[C@@H](C(=O)N[C@H](C(=O)N[C@@H](CCCCN)C(N)=O)C(C)C)C(C)C)C(C)C)C(C)C [Peptide 34, [D]-V^3,4,8,10-K4V8] (H-KV[dV][dV]KVV[dV]K[dV]VK-NH2)	0.8 µM	0%	3.5 µM	
CC[C@H](C)[C@H](NC(=O)[C@H](CCCCN)NC(=O)[C@@H]1CCCN1C(=O)[C@@H](NC(=O)[C@H](CC(C)C)NC(=O)[C@H](C)NC(=O)[C@H](Cc1ccccc1)NC(=O)[C@H](Cc1ccccc1)NC(=O)CN)[C@@H](C)CC)C(=O)N[C@H](C(=O)N[C@@H](CO)C(=O)N[C@@H](CO)C(=O)N1CCC[C@@H]1C(=O)N[C@@H](CC(C)C)C(=O)N[C@@H](Cc1ccccc1)C(=O)N[C@@H](CCCCN)C(=O)N[C@H](C(=O)N[C@@H](CC(C)C)C(=O)N[C@@H](CC(C)C)C(=O)N[C@@H](CO)C(=O)N[C@@H](C)C(=O)N[C@H](C(=O)NCC(=O)N[C@@H](CO)C(=O)N[C@@H](C)C(=O)N[C@@H](CC(C)C)C(=O)N[C@@H](CO)C(=O)N[C@@H](CO)C(=O)N[C@@H](CO)C(=O)NCC(=O)NCC(=O)N[C@@H](CCC(N)=O)C(=O)N[C@@H](CCC(=O)NCCN)C(=O)NCCN)C(C)C)[C@@H](C)O)[C@@H](C)CC [Peptide 9, [D]P^13-TApar]	1.5 µM		3 µM	83%
CC[C@H](C)[C@H](NC(=O)[C@H](CCCCN)NC(=O)[C@H]1CCCN1C(=O)[C@@H](NC(=O)[C@H](CC(C)C)NC(=O)[C@H](C)NC(=O)[C@H](Cc1ccccc1)NC(=O)[C@H](Cc1ccccc1)NC(=O)CN)[C@@H](C)CC)C(=O)N[C@H](C(=O)N[C@@H](CO)C(=O)N[C@@H](CO)C(=O)N1CCC[C@H]1C(=O)N[C@@H](CC(C)C)C(=O)N[C@@H](Cc1ccccc1)C(=O)N[C@@H](CCCCN)C(=O)N[C@H](C(=O)N[C@@H](CC(C)C)C(=O)N[C@@H](CC(C)C)C(=O)N[C@@H](CO)C(=O)N[C@@H](C)C(=O)N[C@H](C(=O)NCCN)C(C)C)[C@@H](C)O)[C@@H](C)CC [Peptide 17, [D]P^7[1-22]-TApar]	1 µM		10 µM	17%
CC[C@H](C)[C@H](NC(=O)[C@H](CCCCN)NC(=O)[C@@H]1CCCN1C(=O)[C@@H](NC(=O)[C@@H](CC(C)C)NC(=O)[C@H](C)NC(=O)[C@H](Cc1ccccc1)NC(=O)[C@H](Cc1ccccc1)NC(=O)CN)[C@@H](C)CC)C(=O)N[C@H](C(=O)N[C@@H](CO)C(=O)N[C@@H](CO)C(=O)N1CCC[C@H]1C(=O)N[C@@H](CC(C)C)C(=O)N[C@@H](Cc1ccccc1)C(=O)N[C@@H](CCCCN)C(=O)N[C@H](C(=O)N[C@@H](CC(C)C)C(=O)N[C@H](CC(C)C)C(=O)N[C@@H](CO)C(=O)N[C@@H](C)C(=O)N[C@H](C(=O)NCC(=O)N[C@@H](CO)C(=O)N[C@@H](C)C(=O)N[C@@H](CC(C)C)C(=O)N[C@@H](CO)C(=O)N[C@@H](CO)C(=O)N[C@@H](CO)C(=O)NCC(=O)NCC(=O)N[C@@H](CCC(N)=O)C(=O)N[C@@H](CCC(=O)NCCN)C(=O)NCCN)C(C)C)[C@@H](C)O)[C@@H](C)CC [Peptide 10, [D]L^5L^19-TApar]	1.3 µM		3 µM	56%
CC(C)C[C@H](NC(=O)[C@@H](CC(C)C)NC(=O)[C@H](CC(C)C)NC(=O)[C@@H](CC(C)C)NC(=O)[C@@H](N)CCCCN)C(=O)N[C@@H](CCCCN)C(=O)O [Peptide 28, [D]-L^2,4-K2L4] (H-K[dL]L[dL]LK-OH)	50 µM	0%	200 µM	
C[C@H](NC(=O)[C@H](C)NC(=O)[C@H](CCCCN)NC(=O)[C@@H](C)NC(=O)[C@@H](C)NC(=O)[C@H](C)NC(=O)[C@@H](N)CCCCN)C(=O)N[C@H](C)C(=O)N[C@@H](CCCCN)C(=O)N[C@H](C)C(=O)N[C@@H](C)C(=O)N[C@@H](CCCCN)C(N)=O [Peptide 33, [D]-A^3,4,8,10-K4A8] (H-KA[dA][dA]KAA[dA]K[dA]AK-NH2)	1 µM	0%	12 µM	
CC[C@H](C)[C@H](NC(=O)[C@H](CCCCN)NC(=O)[C@H]1CCCN1C(=O)[C@@H](NC(=O)[C@H](CC(C)C)NC(=O)[C@H](C)NC(=O)[C@H](Cc1ccccc1)NC(=O)[C@H](Cc1ccccc1)NC(=O)CN)[C@@H](C)CC)C(=O)N[C@H](C(=O)N[C@@H](CO)C(=O)N[C@@H](CO)C(=O)N1CCC[C@H]1C(=O)N[C@@H](CC(C)C)C(=O)N[C@@H](Cc1ccccc1)C(=O)N[C@@H](CCCCN)C(=O)N[C@H](C(=O)N[C@@H](CC(C)C)C(=O)N[C@H](CC(C)C)C(=O)N[C@@H](CO)C(=O)N[C@@H](C)C(=O)N[C@H](C(=O)NCC(=O)N[C@@H](CO)C(=O)N[C@@H](C)C(=O)N[C@@H](CC(C)C)C(=O)N[C@@H](CO)C(=O)N[C@@H](CO)C(=O)N[C@@H](CO)C(=O)NCC(=O)NCC(=O)N[C@@H](CCC(N)=O)C(=O)N[C@@H](CCC(=O)NCCN)C(=O)NCCN)C(C)C)[C@@H](C)O)[C@@H](C)CC [Peptide 11, [D]P^7L^19-TApar]	1.5 µM		3 µM	82%
CC[C@H](C)[C@@H]1NC(=O)[C@H](CCCCN)NC(=O)[C@H]2CCCN2C(=O)[C@H]([C@@H](C)CC)NC(=O)[C@H](CC(C)C)NC(=O)[C@H](C)NC(=O)[C@H](Cc2ccccc2)NC(=O)[C@H](Cc2ccccc2)NC(=O)CNC(=O)[C@H](CCCCN)NC(=O)[C@H](CCCCN)NC(=O)[C@H](CCCCN)NC(=O)[C@@H](N)CSSC[C@@H](C(=O)O)NC(=O)[C@H](C(C)C)NC(=O)[C@H](C)NC(=O)[C@H](CO)NC(=O)[C@@H](CC(C)C)NC(=O)[C@@H](CC(C)C)NC(=O)[C@H]([C@@H](C)O)NC(=O)[C@H](CCCCN)NC(=O)[C@H](Cc2ccccc2)NC(=O)[C@H](CC(C)C)NC(=O)[C@@H]2CCCN2C(=O)[C@H](CO)NC(=O)[C@H](CO)NC(=O)[C@H]([C@@H](C)CC)NC1=O [Peptide 88, Cyclic K^1K^2K^3[D]P^7L^18L^19[1-22]-par]	2 µM	0%	7.5 µM	
CC[C@H](C)[C@@H]1NC(=O)[C@H](CCCCN)NC(=O)[C@H]2CCCN2C(=O)[C@H]([C@@H](C)CC)NC(=O)[C@H](CC(C)C)NC(=O)[C@H](C)NC(=O)[C@H](Cc2ccccc2)NC(=O)[C@H](Cc2ccccc2)NC(=O)CNC(=O)[C@H](CCCCN)NC(=O)[C@H](CCCCN)NC(=O)[C@@H](N)CSSC[C@@H](C(=O)O)NC(=O)[C@H](C(C)C)NC(=O)[C@H](C)NC(=O)[C@H](CO)NC(=O)[C@@H](CC(C)C)NC(=O)[C@@H](CC(C)C)NC(=O)[C@H]([C@@H](C)O)NC(=O)[C@H](CCCCN)NC(=O)[C@H](Cc2ccccc2)NC(=O)[C@H](CC(C)C)NC(=O)[C@@H]2CCCN2C(=O)[C@H](CO)NC(=O)[C@H](CO)NC(=O)[C@H]([C@@H](C)CC)NC1=O [Peptide 87, Cyclic K^1K^2[D]P^7L^18L^19[1-22]-par]	6 µM	0%	15 µM	
